Earlier results in US20080171795A1, “Novel Inter and Intra Multilamellar Vesicular Composition” (LIFE-CARE INNOVATIONS PVT. LTD., priority 2005, published 2008).
Where two headings read alike, the source gives them in different places.

What was measured:
[1] = topical, skin with impaired stratum corneum barrier
psoriasis = settings: compared with dithranol

Row | Time to penetrate into the skin [1] [min] | Solubility (in alcohol, ether, glacial acetic acid) | Solubility (in water) | Solubility (in water, listed as dithranol) | Structure (SMILES) | Solubility (in acetone) | Solubility (in dilute solution of alkali hydroxides) | Solubility (in methylene chloride, chloroform) | Efficacy (psoriasis) | Irritancy and staining (psoriasis)
1 | 30 | slightly soluble | Practically insoluble | insoluble in water | O=C1c2c(O)cccc2Cc2cccc(O)c21 [Dithranol, 1,8-dihydroxyanthrone] | alcohol, ether, glacial acetic acid, sparingly | chloroform. dissolves in dilute solution of alkali | soluble in acetone, soluble in methylene chloride, |  | 
2 |  |  |  |  | CCCC(=O)C1c2cccc(O)c2C(=O)c2c(O)cccc21 [butantrone, 10-butyryldithranol] |  |  |  | compromised | reduced irritancy and staining
3 |  |  |  |  | CC(=O)Oc1cccc2cc3cccc(OC(C)=O)c3c(OC(C)=O)c12 [triacetyldithranol] |  |  |  | compromised | reduced irritancy and staining
